According to ChEMBL document CHEMBL1139190, “Pyrazolo[1,5-a]pyridine antiherpetics: effects of the C3 substituent on antiviral activity” (Bioorg Med Chem Lett, 2007):

Assays:
Human alphaherpesvirus 1 = assay: Antiviral activity against HSV1 in Vero SC16 cells by capture hybrid method; type: functional, organism-based; conditions: Human alphaherpesvirus 1, Vero
[1] = Cytotoxicity against Vero SC16 cells; type: cell-based; conditions: chlorocebus sabaeus
[2] = Therapeutic index, ratio of CC50 for Vero SC16 cells to EC50 for HSV1; type: cell-based; conditions: monkey, read-out: Ratio CC50/EC50

| SMILES | EC50 (Human alphaherpesvirus 1) [µM] | CC50 [1] [µM] | selectivity ratio [2] |
| --- | --- | --- | --- |
| Fc1ccc(-c2nn3c(NC4CCCC4)cccc3c2-c2cc[nH]n2)cc1 | 2.5 | 14 | 6 |
| Fc1ccc(-c2nn3c(NC4CCCC4)cccc3c2-c2ccc(NC3CCCC3)nc2)cc1 | > 40 |  |  |
| Fc1ccc(-c2nn3c(NC4CCCC4)cccc3c2-c2cccnc2NC2CCCC2)cc1 | > 40 |  |  |
| Fc1ccc(-c2nn3c(NC4CCCC4)cccc3c2-c2ccno2)cc1 | > 10 |  |  |
| Nc1nccc(-c2c(-c3ccc(F)cc3)nn3c(NC4CCCC4)cccc23)n1 | 4.1 | 46 | 11 |
| Fc1ccc(-c2nn3c(NC4CCCC4)cccc3c2-c2ccc(F)nc2)cc1 | > 40 |  |  |
| Fc1ccc(-c2nn3c(NC4CCCC4)cccc3c2-c2ccco2)cc1 | > 10 |  |  |
| Fc1ccc(-c2nn3c(NC4CCCC4)cccc3c2-c2cn[nH]c2)cc1 | 4.7 | 10 | 2 |
| Cc1nc(-c2c(-c3ccc(F)cc3)nn3c(NC4CCCC4)cccc23)co1 | > 40 |  |  |
| Fc1ccc(-c2nn3c(NC4CCCC4)cccc3c2-c2cc(NC3CCCC3)ncn2)cc1 | 0.85 | > 40 | > 46 |
| Fc1ccc(-c2nn3c(NC4CCCC4)cccc3c2-c2ccnc(NC3CCCC3)c2)cc1 | 0.37 | > 40 | > 108 |
| Nc1cccc(-c2c(-c3ccc(F)cc3)nn3c(NC4CCCC4)cccc23)c1 | > 10 |  |  |
| Fc1ccc(-c2nn3c(NC4CCCC4)cccc3c2-c2ccoc2)cc1 | > 10 |  |  |
| NNc1cc(-c2c(-c3ccc(F)cc3)nn3c(NC4CCCC4)cccc23)ccn1 | 5.7 | 40 | 7 |
| [N-]=[N+]=Nc1cc(-c2c(-c3ccc(F)cc3)nn3c(NC4CCCC4)cccc23)ccn1 | > 40 |  |  |
| Fc1ccc(-c2nn3c(NC4CCCC4)cccc3c2-c2c[nH]c(NC3CCCC3)n2)cc1 | 7.9 | 40 | 5 |
| Nc1nc(-c2c(-c3ccc(F)cc3)nn3c(NC4CCCC4)cccc23)cs1 | 8.6 |  |  |
| Fc1ccc(-c2nn3c(NC4CCCC4)cccc3c2-c2ccc3[nH]ccc3c2)cc1 | 3.9 | 20 | 5 |
| Nc1nc(-c2c(-c3ccc(F)cc3)nn3c(NC4CCCC4)cccc23)c[nH]1 | > 10 |  |  |
| Fc1ccc(-c2nn3c(NC4CCCC4)cccc3c2-c2ccnnc2)cc1 | > 10 |  |  |
| Fc1ccc(-c2nn3c(NC4CCCC4)cccc3c2-c2ccnc(F)c2)cc1 | > 40 |  |  |
| Fc1ccc(-c2nn3c(NC4CCCC4)cccc3c2-c2cccnc2)cc1 | 3.4 | > 40 | > 11 |
| Fc1ccc(-c2nn3c(NC4CCCC4)cccc3c2-c2ccsc2)cc1 | > 10 |  |  |
| Nc1n[nH]cc1-c1c(-c2ccc(F)cc2)nn2c(NC3CCCC3)cccc12 | 4.9 | 20 | 4 |
| Fc1ccc(-c2nn3c(NC4CCCC4)cccc3c2-c2ccnc(NC3CCCC3)n2)cc1 | 0.26 | > 160 | > 615 |
